Experimental data: patent publication US9868730B2, “Kappa opioid receptor selective compounds, compositions, and uses thereof” (The Trustees of Columbia University in the City of New York, priority 2013, dated 2018)
Entries after “also recorded” stand apart in the source; their conditions may differ.

What was measured:
KOP receptor [1] = biological target: T1, KOP receptor (Homo sapiens, UniProt P41145); test: BRET-based G protein (GαoB) activation assay in HEK293T cells; type: cell-based; design: host or cells: HEK293T; conditions: for EC50: hKOP co-expressed with GαoB-RLuc8, β1, mVenus-γ2, read-out: potency (EC50) of GαoB activation at hKOP; for agonistic activity at hKOP (G protein activation), in words: relative to EKC
Source text: (§1) The cDNAs for human KOP (hKOP) receptor and the G protein GαoB were obtained from the Missouri S&T cDNA Resource Center. For arrestin recruitment experiments, full-length Renilla luciferase 8 (RLuc8, provided by S. Gambhir) was fused in-frame to the C terminus of the hKOP receptor in the pcDNA3.1 vector. The following human G protein constructs were provided by C. Gales (Gales et al., 2006; Sauliere et al., 2012): GαoB with RLuc8 inserted at position 91 (GαoB-RLuc8); untagged Gβ1 (β1); untagged Gγ2 (γ2). The human γ2 subunit was fused to full-length mVenus at its N terminus (mVenus-γ2), and the fusion construct human arrestin3-mVenus was used as previously described (Klewe et al., 2008). All constructs were confirmed by sequencing analysis. A total of 20 μg of plasmid cDNA (e.g. 0.2 μg of hKOR-RLuc8, 15 μg of arrestin3-mVenus, and 4.8 μg of pcDNA3.1) was transfected into HEK-293T cells using polyethylenimine (Polysciences Inc., Warrington, Pa.) in a 1:3 ratio in 10-cm dishes. Cells were maintained in culture with DMEM supplemented with 10% FBS. The transfected ratio among receptor, Gα, β1, and γ2, or arrestin was optimized by testing various ratios of plasmids encoding the different sensors. Experiments were performed 48 hours after transfection.
(§2) BRET was performed as described (Guo et al., 2008). Briefly, two days after transfection, cells were harvested, washed, and re-suspended in a phosphate-buffered saline (PBS) solution. Approximately 200,000 cells/well were distributed in 96-well plates, and 5 μM coelenterazine H (luciferase substrate) was added to each well. Five minutes after the addition of coelenterazine H, ligands were added to each well, and after 2 minutes for G protein activation or 5 minutes for arrestin recruitment, the BRET signal was determined by quantifying and calculating the ratio of the light emitted by mVenus, the energy acceptor (510-540 nm), over that emitted by RLuc8, the energy donor (485 nm). The drug-induced BRET signal was normalized, taking the Emax of the ethylketocyclazocine (EKC)-induced response as 100%. To measure cAMP accumulation, a BRET-based cAMP in a previously described YFP-Epac-RLuc (CAMYEL) assay was used (Jiang et al., 2007). GαoB B, β1, and γ2 were co-expressed to enhance the signal-to-noise ratio, and the cells were treated for 5 minutes with 100 μM forskolin prior to stimulation (Jiang et al., 2007). The data were normalized and represented as the percentage of forskolin-stimulated cAMP accumulation with 0 defined as the maximal inhibition elicited by EKC.
To assess whether any of these molecules had agonistic activity, a BRET-based G protein activation assay where the hKOP receptor was co-expressed in HEK293T cells with GαoB-RLuc8, β1, and mVenus-γ2 was used. The drug-induced BRET signal is interpreted as a dissociation of and/or conformational change within the Gαβγ complex, and thus, as the activation of the co-expressed G protein.

MOP receptor [2] = biological target: T2, MOP receptor (Homo sapiens, UniProt P35372); test: BRET-based G protein activation assay; type: cell-based; design: expressed in transfected cells
Protocol: as §2

DOP receptor [3] = biological target: T3, DOP receptor (Homo sapiens, UniProt P41143); test: BRET-based G protein activation assay; type: cell-based; design: expressed in transfected cells; conditions: for EC50: read-out: potency of G protein activation at DOP
Protocol: as §2

KOP receptor [4] = biological target: T1, KOP receptor; test: Competitive inhibition of 3H-diprenorphine binding, membranes of transfected HEK293T cells; design: host or cells: HEK293T; conditions: for inhibition of 3H-diprenorphine binding: 100 μM compound, room temperature, 1 hour; for inhibition of 3H-diprenorphine binding / Ki: 0.3 nM 3H-diprenorphine; for Ki: means ± S.E.M. (n = 3), read-out: Ki KOP
Protocol: (§3) Two days after transfection with human KOP receptor and GαoB, HEK293T cells were lysed and membranes were prepared in HEPES buffer (NaCl 140 mM, KCl 5.4 mM, HEPES 25 mM, EDTA 1 mM, MgCl2 2 mM, BSA 0.006%, pH 7.4) using a Polytron homogenizer. Membranes were incubated with ^3H-diprenorphine (0.3 nM) (PerkinElmer, Waltham, Mass.) at room temperature for 1 hour in a final volume of 1 ml, in the absence or presence of various concentrations of each small-molecule selected from the virtual screening. Membranes were then harvested using a Brandel cell harvester through a Whatman FPD-24 934AH glass-fiber filter and washed three times with ice-cold wash Buffer (Tris-HCl 10 mM, NaCl 120 mM, pH 7.4). Non-specific binding was determined using 400 nM of NorBNI.
The primary experimental testing of MCKK-1-22 consisted of performing a competitive inhibition binding assay at the hKOP receptor. Membranes of HEK293T cells transfected with the hKOP receptor and GαoB were prepared and incubated with ^3H-diprenorphine (0.3 nM) in the absence or presence of 10 or 100 μM of each small-molecule from the virtual screening.
(§4) To assess the degree of selectivity of MCKK-4, MCKK-5, MCKK-13, MCKK-17R or MCKK-17S for the hKOP over the DOP and MOP receptors, competitive inhibition of ^3H-diprenorphine (0.3 nM) binding in the absence or presence of various concentrations of each molecule were performed, and their Ki values for each receptor were determined (Table 2 below).

KOP receptor [5] = biological target: T1, KOP receptor; test: BRET-based arrestin3 recruitment assay; type: cell-based; design: host or cells: HEK293T; conditions: hKOP-RLuc8 with arrestin3-mVenus; read-out: potency of arrestin3 recruitment at hKOP
Source text: as §1
BRET was performed as described (Guo et al., 2008). Briefly, two days after transfection, cells were harvested, washed, and re-suspended in a phosphate-buffered saline (PBS) solution. Approximately 200,000 cells/well were distributed in 96-well plates, and 5 μM coelenterazine H (luciferase substrate) was added to each well. Five minutes after the addition of coelenterazine H, ligands were added to each well, and after 2 minutes for G protein activation or 5 minutes for arrestin recruitment, the BRET signal was determined by quantifying and calculating the ratio of the light emitted by mVenus, the energy acceptor (510-540 nm), over that emitted by RLuc8, the energy donor (485 nm). The drug-induced BRET signal was normalized, taking the Emax of the ethylketocyclazocine (EKC)-induced response as 100%. […]

KOP receptor [6] = biological target: T1, KOP receptor; test: G protein bias from BRET-based G protein activation and arrestin recruitment assays; type: cell-based
MOP receptor [7] = biological target: T2, MOP receptor; test: Competitive inhibition of 3H-diprenorphine binding; conditions: 0.3 nM 3H-diprenorphine; means ± S.E.M. (n = 3)
Protocol: as §3, §4

DOP receptor [8] = biological target: T3, DOP receptor; test: Competitive inhibition of 3H-diprenorphine binding; conditions: 0.3 nM 3H-diprenorphine; means ± S.E.M. (n = 3)
Protocol: as §3, §4

Structure (SMILES)	agonistic activity at hKOP (G protein activation), in words (KOP receptor [1])	inhibition of 3H-diprenorphine binding (KOP receptor [4])	bias toward G protein activation over arrestin (KOP receptor [6])	Ki (MOP receptor [7]) [µM]	Ki (DOP receptor [8]) [µM]	Ki (KOP receptor [4]) [µM]	other results
O=C(CN1CCCC1C(=O)Nc1nccs1)Nc1cccc(F)c1 (racemic) [MCKK-17, 1-(2-(3-fluorophenylamino)-2-oxoethyl)-N-(thiazol-2-yl)pyrrolidine-2-carboxamide]	exhibited agonistic activity	partially but significantly inhibited	–	–	–	–	EC50 (KOP receptor [1]): 8.3 ± 4 µM; agonistic activity at MOP (G protein activation), in words (MOP receptor [2]): Neither the racemic nor the MCKK-17 stereoisomers displayed significant activity; EC50 (DOP receptor [3]): > 1000 µM; inhibition of 3H-diprenorphine binding (KOP receptor [4]; listed as MCKK-17(R/S)): significantly inhibited; EC50 (KOP receptor [5]): 164 ± 38 µM
CC[C@]12CCN(CC3CC3)[C@H](C(=O)c3ccc(O)cc31)[C@@H]2C [EKC, ethylketocyclazocine]	–	–	non-biased	–	–	–	–
O=C(Nc1cccc(-n2cccn2)c1)C1CCCN1Cc1c[nH]cn1 (centres unmarked) [MCKK-4]	None of the other molecules, MCKK-4, MCKK-5 and MCKK-13, significantly activated GoB	partially but significantly inhibited	–	906 ± 836	641 ± 192	292 ± 209	–
CN(CC(=O)NC1CCN(Cc2ccccc2)C1)Cc1ccco1 (centres unmarked) [MCKK-5]	None of the other molecules, MCKK-4, MCKK-5 and MCKK-13, significantly activated GoB	partially but significantly inhibited	–	428 ± 137	179 ± 187	134 ± 81	–
O=S1(=O)CCC(NCc2cccc(OCCn3ccnc3)c2)C1 (centres unmarked) [MCKK-13]	None of the other molecules, MCKK-4, MCKK-5 and MCKK-13, significantly activated GoB	partially but significantly inhibited	–	> 10000	300 ± 99	453 ± 27	–
O=C(CN1CCC[C@@H]1C(=O)Nc1nccs1)Nc1cccc(F)c1 [MCKK-17R, (R)-1-(2-(3-fluorophenylamino)-2-oxoethyl)-N-(thiazol-2-yl)pyrrolidine-2-carboxamide]	–	–	–	508	286	2900	EC50 (KOP receptor [1]): 115 ± 9 µM; agonistic activity at MOP (G protein activation), in words (MOP receptor [2]): Neither the racemic nor the MCKK-17 stereoisomers displayed significant activity; agonistic activity at DOP (G protein activation), in words (DOP receptor [3]): most active enantiomer at the DOP receptor; EC50 (DOP receptor [3]): > 1000 µM; EC50 (KOP receptor [5]): > 1000 µM
O=C(CN1CCC[C@H]1C(=O)Nc1nccs1)Nc1cccc(F)c1 [MCKK-17S, (S)-1-(2-(3-fluorophenylamino)-2-oxoethyl)-N-(thiazol-2-yl)pyrrolidine-2-carboxamide]	full agonism relative to EKC; also recorded: more active stereoisomer	–	not biased toward G protein activation over arrestin	> 10000	> 10000	123 ± 38	selectivity for hKOP relative to MOP and DOP receptors (G protein activation) (KOP receptor [1]): selective for hKOP relative to MOP and DOP receptors; EC50 (KOP receptor [1]): 7.2 ± 3.8 µM; agonistic activity at MOP (G protein activation), in words (MOP receptor [2]): Neither the racemic nor the MCKK-17 stereoisomers displayed significant activity; agonistic activity at DOP (G protein activation), in words (DOP receptor [3]): did not significantly activate the DOP receptor; EC50 (DOP receptor [3]): > 1000 µM; selectivity for hKOP over DOP and MOP receptors (binding affinity) (KOP receptor [4]): exhibited selectivity for the hKOP receptor; EC50 (KOP receptor [5]): 123 ± 47 µM
O=C(N[C@@H]1CC[C@@]2(O)C3Cc4ccc(O)c5c4[C@@]2(CCN3CC2CC2)[C@H]1O5)c1ccc2ccccc2c1 [NNTA]	–	–	non-biased	–	–	–	–
Oc1ccc2c(c1)[C@@]13CCCC[C@@]1(O)[C@@H](C2)N(CC1CCC1)CC3 [butorphanol]	–	–	showed bias toward G protein activation over arrestin	–	–	–	–
C[C@H]1[C@H]2Cc3ccc(O)cc3[C@]1(C)CCN2CC1CC1 [cyclazocine]	–	–	showed bias toward G protein activation over arrestin; also recorded: biased toward G protein activation	–	–	–	–
CN1CC[C@]23CCCC[C@H]2[C@H]1Cc1ccc(O)cc13 [levorphanol]	–	–	showed bias toward G protein activation over arrestin	–	–	–	–
